This is an account of results in patent US7786141B2 (Vertex Pharmaceuticals Incorporated, priority 2004, dated 2010).

One test has as its target T1, M1 muscarinic receptor (Homo sapiens, UniProt P11229).
T1 construct: expressed in transfected cells; host or cells: CHO (M1-CHO)
T1 sequence (P11229 1-460): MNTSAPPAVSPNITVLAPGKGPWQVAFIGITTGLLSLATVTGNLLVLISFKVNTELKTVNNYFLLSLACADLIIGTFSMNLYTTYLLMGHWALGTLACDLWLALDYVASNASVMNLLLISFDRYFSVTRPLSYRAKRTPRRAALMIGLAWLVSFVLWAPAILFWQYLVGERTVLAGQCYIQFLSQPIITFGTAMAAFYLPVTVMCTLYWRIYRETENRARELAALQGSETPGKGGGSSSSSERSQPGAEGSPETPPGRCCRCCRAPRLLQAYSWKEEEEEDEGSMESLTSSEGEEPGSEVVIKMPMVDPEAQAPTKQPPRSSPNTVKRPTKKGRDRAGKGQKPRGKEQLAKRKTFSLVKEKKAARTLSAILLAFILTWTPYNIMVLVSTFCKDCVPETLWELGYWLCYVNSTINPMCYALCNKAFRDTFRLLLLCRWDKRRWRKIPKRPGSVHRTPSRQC
Nature of the test: Functional mobilization of intracellular calcium (FLIPR) in M1-CHO cells. The format is cell-based. The following applies: M1 receptor, calcium mobilization; for Emax: read-out: M1 Efficacy. A digest of the protocol: (§1)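 Measured via Fluo-3 fluorescence on a FLIPR, CHO cells with either muscarinic subtype received compound in 0.5% DMSO. Antagonism was assessed after 15 min pre-incubation followed by carbachol at each subtype's EC80; agonism from compound addition alone.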
In general terms: Calcium assays in cells follow changes in intracellular calcium, usually with a dye or a luminescent sensor.

The next test deals with T2, M4 muscarinic receptor (Homo sapiens, UniProt P08173).
T2 construct: expressed in transfected cells; host or cells: CHO (M4-CHO)
T2 sequence (P08173 1-479): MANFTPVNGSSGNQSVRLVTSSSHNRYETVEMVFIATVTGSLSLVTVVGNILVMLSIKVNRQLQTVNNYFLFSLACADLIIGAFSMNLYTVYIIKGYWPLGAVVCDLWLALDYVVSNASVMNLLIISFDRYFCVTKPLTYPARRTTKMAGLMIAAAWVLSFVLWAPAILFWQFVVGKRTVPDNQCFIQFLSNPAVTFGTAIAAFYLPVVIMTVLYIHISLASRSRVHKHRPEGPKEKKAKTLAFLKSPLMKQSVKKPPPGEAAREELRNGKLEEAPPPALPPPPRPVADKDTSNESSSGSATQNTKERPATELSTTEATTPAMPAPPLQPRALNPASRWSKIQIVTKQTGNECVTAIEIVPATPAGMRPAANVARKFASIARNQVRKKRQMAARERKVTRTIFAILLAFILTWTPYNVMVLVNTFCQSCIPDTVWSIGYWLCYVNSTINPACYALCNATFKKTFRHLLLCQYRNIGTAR
In words: Functional mobilization of intracellular calcium (FLIPR) in M4-CHO cells. The format is cell-based. The following applies: M4 receptor, calcium mobilization; for Emax: read-out: M4 Efficacy. In a few lines: as §1

With `CCOC(=O)N1CCC(N2CCC3(CC2)CN(C(C)=O)c2ccc(-c4ccc(OC)cc4)cc23)CC1` [compound 193], on M1 muscarinic receptor, the “M1 Activity” value was “x (activity was measured to be greater than 1.0 μM)” and the Emax was less than 65%. For the same molecule, at M4 muscarinic receptor, the “M4 Activity” value was “x (activity was measured to be greater than 1.0 μM)” and the Emax is less than 65%.
Take `CCOC(=O)N1CCC(N2CCC3(CC2)CN(C(=O)CC(C)(C)C)c2ccc(F)cc23)CC1` [compound 194]: at M1 muscarinic receptor, the “M1 Activity” value is listed as “xxx (activity was measured to be less than 0.1 μM)” and the Emax was more than 85%. Further, at M4 muscarinic receptor, the “M4 Activity” value is recorded as “x (activity was measured to be greater than 1.0 μM)” and the Emax was in the range of 65 to 85%.
Regarding `COCCOC(=O)N1CC2(CCN(C3CC4CCC(C3)N4C(=O)OC3CCC3)CC2)c2cc(F)ccc21` (centres unmarked) [compound 195], on M1 muscarinic receptor, the “M1 Activity” value was “xx (activity was measured to be between 0.1 μM and 1.0 μM)”; the Emax was less than 65%. At M4 muscarinic receptor, the “M4 Activity” value is “x (activity was measured to be greater than 1.0 μM)” and the Emax is less than 65%.
As for `CC(=O)N[C@H]1CC2(CCN(C3CCCCC3)CC2)c2ccccc21` [compound 196], at M1 muscarinic receptor, the “M1 Activity” value is listed as “xxx (activity was measured to be less than 0.1 μM)” and the Emax was in the range of 65 to 85%. On M4 muscarinic receptor, the “M4 Activity” value is reported as “x (activity was measured to be greater than 1.0 μM)” and the Emax is less than 65%.
With `CCOC(=O)N1C2CCC1CC(N1CCC3(CC1)CN(C(=O)Nc1ccc(F)cc1)c1ccc(F)cc13)C2` (centres unmarked) [compound 197], at M1 muscarinic receptor, the “M1 Activity” value is “xx (activity was measured to be between 0.1 μM and 1.0 μM)”; the Emax was less than 65%. Moreover, on M4 muscarinic receptor, the “M4 Activity” value is on record as “x (activity was measured to be greater than 1.0 μM)” and the Emax was less than 65%.
As for `O=C(O[C@@H]1CCOC1)N1CC2(CCN(C3CC4CCC(C3)N4C(=O)O[C@H]3CCOC3)CC2)c2cc(F)ccc21` (some centres unmarked) [compound 198], on M1 muscarinic receptor, the “M1 Activity” value was “xx (activity was measured to be between 0.1 μM and 1.0 μM)”; the Emax was 65 to 85%. Further, on M4 muscarinic receptor, the “M4 Activity” value is “x (activity was measured to be greater than 1.0 μM)” and the Emax was less than 65%.
Turning to `CCOC(=O)N1C2CCC1CC(N1CCC3(CC1)C(=O)Nc1ccccc13)C2` (centres unmarked) [compound 199], on M1 muscarinic receptor, the “M1 Activity” value was “xx (activity was measured to be between 0.1 μM and 1.0 μM)”; the Emax lay in the range of 65 to 85%. Besides, on M4 muscarinic receptor, the “M4 Activity” value was “x (activity was measured to be greater than 1.0 μM)” and the Emax is less than 65%.
With `CC=CCOC(=O)N1C2CCC1CC(N1CCC3(CC1)CN(C(=O)N(C)C)c1ccc(F)cc13)C2` (centres unmarked) [compound 200], on M1 muscarinic receptor, the “M1 Activity” value is “xx (activity was measured to be between 0.1 μM and 1.0 μM)”; the Emax lay in the range of 65 to 85%. Moreover, at M4 muscarinic receptor, the “M4 Activity” value was “x (activity was measured to be greater than 1.0 μM)” and the Emax was less than 65%.
On to `CC(=O)N1CC2(CCN(CC3CCN(C(=O)OC(C)C)CC3)CC2)c2cc(F)ccc21` [compound 202], for which, on M1 muscarinic receptor, the “M1 Activity” value is “xx (activity was measured to be between 0.1 μM and 1.0 μM)”; the Emax is 65 to 85%. At M4 muscarinic receptor, the “M4 Activity” value is “x (activity was measured to be greater than 1.0 μM)” and the Emax was less than 65%.
Turning to `CN(C)C(=O)N1C2CCC1CC(N1CCC3(CC1)COc1ccc(F)cc13)C2` (centres unmarked) [compound 203], on M1 muscarinic receptor, the “M1 Activity” value is “xxx (activity was measured to be less than 0.1 μM)” and the Emax is 65 to 85%. In addition, on M4 muscarinic receptor, the “M4 Activity” value was “xx (activity was measured to be between 0.1 μM and 1.0 μM)”; the Emax was less than 65%.
As to `Fc1ccc2c(c1)C1(CCN([C@H]3C[C@@H]4CC[C@@H]3C4)CC1)CO2` [compound 204], at M1 muscarinic receptor, the “M1 Activity” value is reported as “xxx (activity was measured to be less than 0.1 μM)” and the Emax fell in the range of 65 to 85%. Besides, at M4 muscarinic receptor, the “M4 Activity” value is “x (activity was measured to be greater than 1.0 μM)” and the Emax is less than 65%.
Consider `CCOC(=O)N1C2CCC1CC(N1CCC3(CC1)CN(C(C)=O)c1ccccc13)C2` (centres unmarked) [compound 205], for which, on M1 muscarinic receptor, the “M1 Activity” value was “x (activity was measured to be greater than 1.0 μM)” and the Emax was less than 65%. In addition, at M4 muscarinic receptor, the “M4 Activity” value is given as “x (activity was measured to be greater than 1.0 μM)” and the Emax is less than 65%.
As for `CC(=O)N[C@H]1CC2(CCN(C3CCOCC3)CC2)c2ccccc21` [compound 206], on M1 muscarinic receptor, the “M1 Activity” value is recorded as “xxx (activity was measured to be less than 0.1 μM)” and the Emax lay within 65 to 85%. At M4 muscarinic receptor, the “M4 Activity” value was “x (activity was measured to be greater than 1.0 μM)” and the Emax was less than 65%.
On to `Fc1ccc2c(c1)C1(CCN(C[C@H]3C[C@H]4CC[C@H]3C4)CC1)CO2` [compound 207], for which, at M1 muscarinic receptor, the “M1 Activity” value was “xx (activity was measured to be between 0.1 μM and 1.0 μM)”; the Emax was in the range of 65 to 85%. For the same molecule, at M4 muscarinic receptor, the “M4 Activity” value is reported as “x (activity was measured to be greater than 1.0 μM)” and the Emax is less than 65%.
For `Cc1ccc2c(c1)C1(CCN(C3CC4CCC3C4)CC1)CN2C(=O)c1cc(C)on1` (centres unmarked) [compound 208], on M1 muscarinic receptor, the “M1 Activity” value was “xx (activity was measured to be between 0.1 μM and 1.0 μM)”; the Emax is less than 65%. On M4 muscarinic receptor, the “M4 Activity” value is “x (activity was measured to be greater than 1.0 μM)” and the Emax was less than 65%.
On to `CN(C)C(=O)N1CC2(CCN(C3CCN(C(=O)O[C@@H]4CCOC4)CC3)CC2)c2cc(F)ccc21` [compound 209], for which, at M1 muscarinic receptor, the “M1 Activity” value was “xx (activity was measured to be between 0.1 μM and 1.0 μM)”; the Emax was more than 85%. Further, at M4 muscarinic receptor, the “M4 Activity” value is “x (activity was measured to be greater than 1.0 μM)” and the Emax is less than 65%.
Consider `CC(=O)N1CC2(CCN(C3CCCCCC3)CC2)c2cc(F)ccc21` [compound 210], for which, at M1 muscarinic receptor, the “M1 Activity” value is “xx (activity was measured to be between 0.1 μM and 1.0 μM)”; the Emax was 65 to 85%. In addition, on M4 muscarinic receptor, the “M4 Activity” value was “x (activity was measured to be greater than 1.0 μM)” and the Emax was less than 65%.
With `Cc1ccc2c(c1)C1(CCN(C3CC4CCC3C4)CC1)CN2C(=O)c1cc(C)n(C)n1` (centres unmarked) [compound 211], on M1 muscarinic receptor, the “M1 Activity” value is on record as “x (activity was measured to be greater than 1.0 μM)” and the Emax is 65 to 85%. Further, at M4 muscarinic receptor, the “M4 Activity” value was “x (activity was measured to be greater than 1.0 μM)” and the Emax is less than 65%.
Take `O=C(O[C@H]1CCOC1)N1C2CCC1CC(N1CCC3(CC1)COc1ccc(F)cc13)C2` (some centres unmarked) [compound 212]: at M1 muscarinic receptor, the “M1 Activity” value is reported as “x (activity was measured to be greater than 1.0 μM)” and the Emax is less than 65%. Also, on M4 muscarinic receptor, the “M4 Activity” value is listed as “x (activity was measured to be greater than 1.0 μM)” and the Emax was less than 65%.
Turning to `CC(=O)NC1CC2(CCN(C[C@H]3C[C@H]4C=C[C@H]3C4)CC2)c2ccccc21` (some centres unmarked) [compound 213], on M1 muscarinic receptor, the “M1 Activity” value was “xx (activity was measured to be between 0.1 μM and 1.0 μM)”; the Emax fell in the range of 65 to 85%. Moreover, on M4 muscarinic receptor, the “M4 Activity” value was “x (activity was measured to be greater than 1.0 μM)” and the Emax was less than 65%.
